Assay results from PubChem BioAssay AID330 (DTP/NCI, 2004).
Where “and” joins values, the source holds several entries; their conditions need not be identical. Identical values can stand only once. Inconclusive results and toxic doses are left out. Rule for the calls: active = survival T/C of 150% or more; inactive = T/C below 125% in these data.

Test system: P388 leukemia ip, CD2F1 mice, survival T/C
Assay: NCI In Vivo Anticancer Drug Screen. Data for tumor model P388 Leukemia (intraperitoneal) in CD2F1 (CDF1) mice
Details: endpoint: median survival time, higher = longer survival
Outline: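 Mice carrying the transplanted tumor received test compound or vehicle. Survival was recorded in each group, and the value is the treated-group measurement divided by that of the vehicle-treated control group.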

[1] = dose: 60.0 mg/kg/injection, schedule: Q01DX005 (ip), vehicle: saline with Tween-80
[2] = dose: 120.0 mg/kg/injection, schedule: Q01DX005 (ip), vehicle: saline with Tween-80
[3] = dose: 240.0 mg/kg/injection, schedule: Q01DX005 (ip), vehicle: saline with Tween-80
[4] = dose: 50.0 mg/kg/injection, schedule: Q01DX005 (ip), vehicle: saline with Tween-80
[5] = dose: 100.0 mg/kg/injection, schedule: Q01DX005 (ip), vehicle: saline with Tween-80
[6] = dose: 60.0 mg/kg/injection, schedule: Q01DX005 (ip), vehicle: Klucel (hydroxypropylcellulose) (HPC)
[7] = dose: 12.5 mg/kg/injection, schedule: Q01DX005 (ip), vehicle: saline
[8] = dose: 25.0 mg/kg/injection, schedule: Q01DX005 (ip), vehicle: saline
[9] = dose: 50.0 mg/kg/injection, schedule: Q01DX005 (ip), vehicle: saline
[10] = dose: 50.0 mg/kg/injection, schedule: Q01DX009 (ip), vehicle: Klucel (hydroxypropylcellulose) (HPC)
[11] = dose: 100.0 mg/kg/injection, schedule: Q01DX009 (ip), vehicle: Klucel (hydroxypropylcellulose) (HPC)
[12] = dose: 200.0 mg/kg/injection, schedule: Q01DX009 (ip), vehicle: Klucel (hydroxypropylcellulose) (HPC)
[13] = dose: 12.5 mg/kg/injection, schedule: Q01DX009 (ip), vehicle: saline
[14] = dose: 50.0 mg/kg/injection, schedule: Q01DX009 (ip), vehicle: saline

Measured: T/C

CC[C@@H]1C[C@H]2CN(CCc3c([nH]c4ccccc34)[C@@](C(=O)OC)(c3cc4c(cc3OC)N(C)[C@H]3[C@@](O)(C(=O)OC)[C@H](OC(C)=O)[C@]5(CC)CCCN6CC[C@]43[C@@H]65)C2)C1
active: dose: 2.0 mg/kg/injection, schedule: Q01DX009 (ip), vehicle: saline with Tween-80 150 % of control | dose: 4.0 mg/kg/injection, schedule: Q01DX009 (ip), vehicle: saline with Tween-80 159 % of control
inactive: dose: 0.06 mg/kg/injection, schedule: Q01DX009 (ip), vehicle: water 104 % of control | dose: 0.13 mg/kg/injection, schedule: Q01DX009 (ip), vehicle: water 104 % of control | dose: 0.25 mg/kg/injection, schedule: Q01DX009 (ip), vehicle: water 105 % of control and 110 % of control | dose: 0.5 mg/kg/injection, schedule: Q01DX009 (ip), vehicle: water 108 % of control and 118 % of control

CCOC(=O)C(C#N)C(=N)C1CC(C)(C)OC1=O (stereo unspecified)
inactive: [1] 100 % of control | [2] 103 % of control | [3] 94 % of control

CCCCCCCCCCCCCCCC[As](CCCCCCCCCCCCCCCC)SCC1OC(OC(C)=O)C(OC(C)=O)C(OC(C)=O)C1OC(C)=O (stereo unspecified)
inactive: dose: 25.0 mg/kg/injection, schedule: Q01DX009 (ip), vehicle: saline with Tween-80 114 % of control | dose: 50.0 mg/kg/injection, schedule: Q01DX009 (ip), vehicle: saline with Tween-80 109 % of control and 119 % of control | dose: 100.0 mg/kg/injection, schedule: Q01DX009 (ip), vehicle: saline with Tween-80 117 % of control | dose: 200.0 mg/kg/injection, schedule: Q01DX009 (ip), vehicle: saline with Tween-80 119 % of control

C=C1C(=O)SC(=NCc2ccccc2)N1C
inactive: [1] 96 % of control | [2] 90 % of control | [3] 91 % of control

CCC1(c2ccccn2)OCC(CBr)O1 (stereo unspecified)
inactive: [4] 93 % of control | [5] 100 % of control | dose: 200.0 mg/kg/injection, schedule: Q01DX005 (ip), vehicle: saline with Tween-80 93 % of control

Cn1cc(N=P(c2ccccc2)(c2ccccc2)c2ccccc2)c(=O)n(C)c1=O
inactive: dose: 15.0 mg/kg/injection, schedule: Q01DX005 (ip), vehicle: Klucel (hydroxypropylcellulose) (HPC) 114 % of control | dose: 30.0 mg/kg/injection, schedule: Q01DX005 (ip), vehicle: Klucel (hydroxypropylcellulose) (HPC) 105 % of control | [6] 107 % of control

O=[N+]([O-])c1ccc(-[n+]2ccc3ccccc3c2)c([N+](=O)[O-])c1
inactive: [7] 110 % of control | [8] 106 % of control | [9] 104 % of control and 111 % of control

CCc1cccc(CC)c1NC(=S)Nc1c(C)n(C)n(-c2ccccc2)c1=O
inactive: [10] 106 % of control | [11] 103 % of control | [12] 95 % of control

O=C1OCCC12C(c1ccccc1)C1(CCOC1=O)C2c1ccccc1 (stereo unspecified)
inactive: dose: 1.87 mg/kg/injection, schedule: Q01DX005 (ip), vehicle: Klucel (hydroxypropylcellulose) (HPC) 94 % of control | dose: 3.75 mg/kg/injection, schedule: Q01DX005 (ip), vehicle: Klucel (hydroxypropylcellulose) (HPC) 94 % of control | dose: 7.5 mg/kg/injection, schedule: Q01DX005 (ip), vehicle: Klucel (hydroxypropylcellulose) (HPC) 86 % of control | [6] 86 % of control | dose: 240.0 mg/kg/injection, schedule: Q01DX005 (ip), vehicle: Klucel (hydroxypropylcellulose) (HPC) 94 % of control

Oc1cc2c(cc1C(Nc1ccccn1)c1ccc3c(c1)OCO3)OCO2 (stereo unspecified)
inactive: [1] 108 % of control | [2] 108 % of control | [3] 95 % of control

CN(C)C(=O)C1CCC(=O)N1 (stereo unspecified)
inactive: dose: 60.0 mg/kg/injection, schedule: Q01DX005 (ip), vehicle: saline 100 % of control | dose: 120.0 mg/kg/injection, schedule: Q01DX005 (ip), vehicle: saline 109 % of control | dose: 240.0 mg/kg/injection, schedule: Q01DX005 (ip), vehicle: saline 105 % of control

O=C1C=CC(=Nc2cc(Br)c(O)c(Br)c2)C=C1
inactive: [7] 103 % of control | [8] 99 % of control | [9] 89 % of control and 95 % of control

COCC(=O)Oc1ccc[nH]c1=O
inactive: [13] 101 % of control and 113 % of control | dose: 25.0 mg/kg/injection, schedule: Q01DX009 (ip), vehicle: saline 103 % of control and 107 % of control | [14] 100 % of control and 106 % of control | dose: 100.0 mg/kg/injection, schedule: Q01DX009 (ip), vehicle: saline 106 % of control and 113 % of control | dose: 200.0 mg/kg/injection, schedule: Q01DX009 (ip), vehicle: saline 100 % of control and 103 % of control

O=C(OC[P+](c1ccccc1)(c1ccccc1)c1ccccc1)c1ccccc1
inactive: [14] 89 % of control

COC(=O)CCCC#C/C=C/CCCC/C=C(Br)\C=C/Br
inactive: dose: 62.5 mg/kg/injection, schedule: Q01DX009 (ip), vehicle: olive oil, sesame oil, peanut oil 101 % of control | dose: 125.0 mg/kg/injection, schedule: Q01DX009 (ip), vehicle: olive oil, sesame oil, peanut oil 96 % of control | dose: 250.0 mg/kg/injection, schedule: Q01DX009 (ip), vehicle: olive oil, sesame oil, peanut oil 98 % of control

CCOP(=O)(O)C1CCCC(C)[N-]1.CCOP(=O)(O)C1CCCC(C)[N-]1.[Co+2] (stereo unspecified)
inactive: dose: 25.0 mg/kg/injection, schedule: Q04DX003 (ip), vehicle: Klucel (hydroxypropylcellulose) (HPC) 107 % of control | dose: 50.0 mg/kg/injection, schedule: Q04DX003 (ip), vehicle: Klucel (hydroxypropylcellulose) (HPC) 95 % of control | dose: 100.0 mg/kg/injection, schedule: Q04DX003 (ip), vehicle: Klucel (hydroxypropylcellulose) (HPC) 99 % of control and 105 % of control

COC1=C(OC)C(=O)C(SCCCc2ccccc2)=CC1=O
inactive: dose: 12.5 mg/kg/injection, schedule: Q04DX002 (ip), vehicle: saline with Tween-80 114 % of control | dose: 25.0 mg/kg/injection, schedule: Q04DX002 (ip), vehicle: saline with Tween-80 112 % of control | dose: 50.0 mg/kg/injection, schedule: Q04DX002 (ip), vehicle: saline with Tween-80 122 % of control

COc1cccc(C(=O)CC(c2ccccc2)C(C)(C)[N+](=O)[O-])c1 (stereo unspecified)
inactive: dose: 25.0 mg/kg/injection, schedule: Q01DX005 (ip), vehicle: saline with Tween-80 105 % of control | [4] 99 % of control | [5] 99 % of control

COc1cc(C2c3cc(O)c(OC)cc3CC3C(=O)OCC32)ccc1O (stereo unspecified)
inactive: dose: 50.0 mg/kg/injection, schedule: Q01DX005 (ip), vehicle: Klucel (hydroxypropylcellulose) (HPC) 95 % of control | dose: 100.0 mg/kg/injection, schedule: Q01DX005 (ip), vehicle: Klucel (hydroxypropylcellulose) (HPC) 95 % of control | dose: 200.0 mg/kg/injection, schedule: Q01DX005 (ip), vehicle: Klucel (hydroxypropylcellulose) (HPC) 90 % of control

COC(=O)CCCNC(C)C
inactive: dose: 25.0 mg/kg/injection, schedule: Q01DX009 (ip), vehicle: water 97 % of control | dose: 50.0 mg/kg/injection, schedule: Q01DX009 (ip), vehicle: water 100 % of control | dose: 100.0 mg/kg/injection, schedule: Q01DX009 (ip), vehicle: water 98 % of control | dose: 200.0 mg/kg/injection, schedule: Q01DX009 (ip), vehicle: water 99 % of control | dose: 400.0 mg/kg/injection, schedule: Q01DX009 (ip), vehicle: water 99 % of control

COc1cc(N2C(=O)CSC2=S)cc(OC)c1OC
inactive: [10] 100 % of control | [11] 89 % of control | [12] 101 % of control

O=C1C(Cl)=C(n2c3ccccc3c3ccccc32)C(=O)c2ccccc21
inactive: dose: 6.25 mg/kg/injection, schedule: Q01DX005 (ip), vehicle: saline with Tween-80 108 % of control | dose: 12.5 mg/kg/injection, schedule: Q01DX005 (ip), vehicle: saline with Tween-80 104 % of control

Oc1ccc[nH]c1=S
inactive: [13] 104 % of control and 105 % of control

Cc1ccc(S(=O)(=O)N/N=C/c2c(Cl)n(C(=O)c3cccc(C)c3)c3ccccc23)cc1
inactive: dose: 50.0 mg/kg/injection, schedule: Q01DX001 (ip), vehicle: Klucel (hydroxypropylcellulose) (HPC) 97 % of control | dose: 100.0 mg/kg/injection, schedule: Q01DX001 (ip), vehicle: Klucel (hydroxypropylcellulose) (HPC) 90 % of control | dose: 200.0 mg/kg/injection, schedule: Q01DX001 (ip), vehicle: Klucel (hydroxypropylcellulose) (HPC) 87 % of control

C=CC1(C)CCC2C(=CCC3C2(C)CC(O)C(O)C3(C)COC2OC(C(=O)O)C(O)C(O)C2O)C1 (stereo unspecified) (tested in a mixture with another compound)
inactive: dose: 12.5 mg/kg/injection, schedule: Q01DX009 (ip), vehicle: Klucel (hydroxypropylcellulose) (HPC) 103 % of control | dose: 25.0 mg/kg/injection, schedule: Q01DX009 (ip), vehicle: Klucel (hydroxypropylcellulose) (HPC) 100 % of control | [10] 106 % of control | [11] 100 % of control
